Results taken from patent US6714815B2, “Method for the iontophoretic non-invasive determination of the in vivo concentration level of an inorganic or organic substance” (The Regents of the University of California, priority 1988, dated 2004).
Counter-ions that a name gives are not always drawn.

How the values were obtained:
[1] = Procedure: FIG. 5—The iontophoretic sampling was extended to another neutral bioactive molecule: ethanol.
An identical protocol to that employed for glucose experiments is followed. The only difference being in the concentration of ethanol in the dermal side. A concentration of 17 mM was used as this corresponds to a 0.08% solution, the maximum blood alcohol level legally allowed.
Radioactivity was again used to measure the extracted ethanol. The dermal side using radioactive ethanol, [1-14C]

[2] = In-vitro iontophoretic delivery of P.S.O.S. in the diffusion cell; assay type: in vitro ADME
Procedure: (b) P.S.O.S. (Potassium Sucrose Octa Sulfate) P.S.O.S., 0.6 ml of 1.5 mg/ml solution in a boric buffer is placed in chamber 16A and boric acid buffer alone is placed in chamber 16C of FIGS. 1, 2 or 3. Using a direct current of 0.5 mA (0.65 mA/cm^2) transport of P.S.O.S is observed up to 5 μg/hr.

[3] = forearm of a person; compared with in vitro case
[4] = remark: listed apart in the source
Procedure: Drugs—Clonidine HCl (Sigma Chemical Co., St. Louis, Mo.); Clonidine-HCl (phenyl-4-^3H) of specific activity 90 mCi/mg (Amersham, Arlington Heights, Ill.). […] The non-labelled drugs were dissolved in deionized water to form solutions of 1 mg/ml, with enough labelled drug to achieve an activity of approximately […].
Skin (13)—Full-thickness skin, freshly excised from 11-15 week old female hairless mice (strain Skh:HR-1, Simonsen Laboratory, Gilroy, Calif.).
Testing of the Modeling Cell—The diffusion cell 10 was tested in three ways:
(1) Leakage tests (without current) using dye and silicone rubber than skin; (2) leakage tests using dye and skin (without current); and (3) iontophoretic tests using the drug solutions and skin (with and without current). Procedures (1) and (2) were evaluated by visually inspecting the cell. For procedure (3), 0.6 ml of labelled drug solution was placed in chamber 16A, 0.6 ml of buffered saline was pipetted into chamber 16C, and a constant current of 0.63 mA/cm^2 (with the voltage limited at 9 V) was imposed between the electrodes in the two chambers. The activity of the solutions in chambers 16A and 16C was determined before and after iontophoresis. The activity of the skin 13 and of the samples taken from the receptor chamber was determined post-experimentally. Each experiment lasts approximately 24 hours, ±2 hours, with samples collected hourly. Receptor fluid 17 was magnetically stirred (27), and the collection flow rate was 10 ml/hr. Each procedure was, repeated three times.

[5] = female, Skh:HR-1 hairless, mouse, 1 mg/ml

With `CCO` [ethanol] the “amount of ethanol extracted iontophoretically” value ([1]; ethanol 17 mM on the dermal side, compared with glucose) was “far greater than that obtained with glucose”, the passive flux ([1]; ethanol 17 mM on the dermal side, no current) was “large passive flux” and the “cathodal versus anodal concentration” value ([1]; preliminary experiments) was “cathodal concentration is greater than anodal”. For the same compound, the “metabolism during iontophoretic sampling” value ([1]; preliminary experiments) was “does not seem to be metabolized”.
For `O=S(=O)([O-])OC[C@H]1O[C@@](COS(=O)(=O)[O-])(O[C@H]2O[C@H](COS(=O)(=O)[O-])[C@@H](OS(=O)(=O)[O-])[C@H](OS(=O)(=O)[O-])[C@H]2OS(=O)(=O)[O-])[C@@H](OS(=O)(=O)[O-])[C@@H]1OS(=O)(=O)[O-].[K+].[K+].[K+].[K+].[K+].[K+].[K+].[K+]` [P.S.O.S, Potassium Sucrose Octa Sulfate], the “transport of P.S.O.S” value ([2]; direct current of 0.5 mA (0.65 mA/cm^2), 0.6 ml of 1.5 mg/ml in boric buffer in chamber 16A) was “up to 5 μg/hr” and the P.S.O.S transferred ([2]; same experimental configuration, printed 'with a current') was “only a few nanograms”.
In the case of `Clc1cccc(Cl)c1N=C1NCCN1` [clonidine-HCl, Clonidine HCl], the “amount of clonidine sampled” value [3] is reported as “comparable to that observed in the in vitro case”, the “drug in the buffered saline of chamber 16C” value [4] is reported as “no drug was found” and the “mean rate of diffusion into the receptor phase (passive transport rate)” value [4, 5] is reported as 0.05 μg/cm^2/hr. The “rate of penetration through the skin” value [4, 5] was 15.0 μg/cm^2/hr and the “labelled drug detected in the buffered saline of chamber 16C” value ([4]; female, Skh:HR-1 hairless, mouse, 20 h, 1 mg/ml) was 5 µg.
